Data on five compounds can be found in patent US20060142271A1, “Novel lapacho compounds and methods of use thereof” (priority 2002, published 2006).

Structures are written as SMILES. Read-outs that look alike come from different tables or passages of the source.

The test system of data set [1] is human keratinocyte cell line HaCaT. Particulars: Müller et al., J. Nat. Prod. 62 (1999); cited from earlier work.
Data set [2] deals with HaCaT cells. Kind of data set: HaCaT keratinocyte proliferation assay (cell counting). Type of data set: cell-based, human. Particulars: for IC50: Homo sapiens. Here is the method: Anthralin, an antipsoriatic drug, was used as a positive control. Antiproliferative activity was measured directly by counting the dispersed cells under a phase-contrast microscope.
HaCaT keratinocyte proliferation assay and LDH release were described previously in full detail (Muller et al. J. Med. Chem. 39: 3132-3138, 1996; Müller et al. J. Med. Chem. 37: 1660-1669, 1994). For the cancer cell line studies, exponentially growing cells were seeded at 1,000 cells per well in six-well plates and allowed to attach for 24 h. Compounds of the invention or β-lapachone, solubflized in DMSO, were added to the wells in micromolar concentrations. Control wells were treated with equivalent volumes of DMSO. After 4 h the supernatant was removed and fresh medium was added. Cultures were observed daily for 10-15 days and then were fixed and stained. Colonies of greater than 30 cells were scored as survivors. […]

The subject of data set [3] is HaCaT cells. Type of data set: cell-based, human. The settings on record: for LDH (mU): human, 2 μM. How it is done:
(§1) HaCaT keratinocyte proliferation assay and LDH release were described previously in full detail (Muller et al. J. Med. Chem. 39: 3132-3138, 1996; Müller et al. J. Med. Chem. 37: 1660-1669, 1994). For the cancer cell line studies, exponentially growing cells were seeded at 1,000 cells per well in six-well plates and allowed to attach for 24 h. Compounds of the invention or β-lapachone, solubflized in DMSO, were added to the wells in micromolar concentrations. Control wells were treated with equivalent volumes of DMSO. After 4 h the supernatant was removed and fresh medium was added. Cultures were observed daily for 10-15 days and then were fixed and stained. Colonies of greater than 30 cells were scored as survivors.
The cytotoxicity of naphthoquinones has been thought to result, at least in part, from reactive oxygen species, generated during redox cycling between the […] and reduction products (Munday, R., Free Radic. Biol. Med., 22, 689-695, 1997), which cause peroxidative damage to membrane lipids. To assess the correlation of keratinocyte growth inhibition with membrane damage, the release of lactate dehydrogenase from the treated cells was also quantitated.

Data set [4] concerns colon cancer cell line DLD1. Kind of data set: Cancer cell line colony survival assay, DLD1. Type of data set: cell-based, human. The settings on record: Homo sapiens. How it is done: as §1
For data set [5], the system named is colon cancer cell line SW480. Description: Cancer cell line colony survival assay, SW480. Type of data set: cell-based, human. The settings on record: Homo sapiens. Here is the method:
as §1

Data set [6] relates to breast cancer cell line MCF7. Kind of data set: Cancer cell line colony survival assay, MCF7. Type of data set: cell-based, human. The settings on record: Homo sapiens. How it is done:
as §1

The test system of another data set is human cancer cell lines. Particulars: wide spectrum of human cancer cell lines; read-out: antineoplastic activity against human cancer cell lines (IC50); cited from earlier work.
Data set [7] deals with normal fresh or proliferating human PBMC. Particulars: cited from earlier work.
Data set [8] concerns cancer cell lines and normal cells. The settings on record: Li et al., PNAS 2003; cited from earlier work.
Setting [9] is: HaCaT, read-out: AA in HaCaT Cells IC50 (μM).
[10] abbreviates: antiproliferative activity against HaCaT cells, N = 3, read-out: AA in HaCaT Cells IC50.
The mark [11] stands for this setting: DLD-1, colon cancer cell line DLD1, 4 h exposure, colonies after 10-15 days, read-out: AA in Cancer Cell Lines IC50 (μM) DLD1.
[12] abbreviates: colon cancer cell line SW480, 4 h exposure, colonies after 10-15 days, read-out: AA in Cancer Cell Lines IC50 (μM) SW480.
The mark [13] stands for this setting: breast cancer cell line MCF7, 4 h exposure, colonies after 10-15 days, read-out: AA in Cancer Cell Lines IC50 (μM) MCF7.

In the case of `CC(C)=CCC1=C(O)C(=O)c2ccccc2C1=O` [lapachol], the “inhibition of keratinocyte growth in HaCaT model (in words)” value (from here on “inhibition of keratinocyte growth”) in data set [1] was “relatively inactive”.

In general, IC50 refers to the concentration that gives 50% inhibition. On to `CC1(C)CCC2=C(O1)c1ccccc1C(=O)C2=O` [β-lapachone, reference compound], for which the “inhibition of HaCaT cell proliferation (in words)” value with HaCaT cells [2] (HaCaT cells) is recorded as “inhibited cell proliferation”. The IC50 in the data set on HaCaT cells [2] (setting [9]) was 0.7 µM; in data set [4] (DLD-1, read-out: AA in Cancer Cell Lines IC50 (μM) DLD1), 4 µM; in [5] (SW480, read-out: AA in Cancer Cell Lines IC50 (μM) SW480), 4 µM; in data set [6] (MCF7, read-out: AA in Cancer Cell Lines IC50 (μM) MCF7), not above 1 µM; in the data set on human cancer cell lines, 1000 to 10000 nM. Further, the “LDH release compared to vehicle control (in words)” value with HaCaT cells [3] is “significant LDH release as compared to vehicle”. Moreover, the “LDH (mU)” value in the data set on HaCaT cells [3] is listed as 329 mU. Besides, in data set [7], the “cytotoxic effects on normal human PBMC” value was “No cytotoxic effects were observed”. For the same compound, the “inhibition of keratinocyte growth” value in data set [1] is on record as “inhibition of keratinocyte growth comparable to the antipsoriatic drug anthralin”. Also, in data set [8], the “induction of apoptosis in cancer versus normal cells” value was “induces apoptosis only in cancer cell lines and not in normal cells”.

For the compound `CC1(C)CCC2=C(O1)C(=O)c1ccccc1C2=O` [α-lapachone, reference compound], the IC50 with HaCaT cells [2] (setting [9]) is 10 µM. Besides, in data set [1], the “inhibition of keratinocyte growth” value is “relatively inactive”.

The term melting point denotes the temperature of the solid-liquid transition. For `O=C(c1ccccc1)c1cc2cc3ccccc3cc2o1` [Compound 74a, Naphtho[2,3-b]furan-2-yl-phenylmethanone], the melting point was 140 to 142 °C. Besides, in the data set on HaCaT cells [2] (setting [10]), the IC50 was 1.9 µM. The “LDH (mU)” value with HaCaT cells [3] is 142 mU. Also, in data set [4] (setting [11]), the IC50 came out at 7.6 µM. The IC50 in data set [5] (setting [12]) was found to be 12 µM. Also, the IC50 in data set [6] (setting [13]) was not above 1 µM.

In turn, `O=C(c1ccccc1)c1cc2cc3ccccc3cc2s1` [Compound 64a, Naphtho[2,3-b]thiophen-2-yl-phenylmethanone] gave a melting point of 164 to 165 °C. Also, in the data set on HaCaT cells [2] (setting [10]), the IC50 was determined as 0.3 µM. Besides, in the data set on HaCaT cells [3], the “LDH (mU)” value is reported as 122 mU. Further, the IC50 in [4] (setting [11]) was found to be 1.5 µM. Moreover, the IC50 in data set [5] (setting [12]) is not above 1 µM. Also, in [6] (setting [13]), the IC50 was not above 1 µM.
